# From a melting point compilation (Tetko et al.; mined from patent text by program, amines drawn as free bases though some values may be those of a salt)
row,melting point,Compound
1,80 to 87 °C,Cc1ccc(S(=O)(=O)NC(=O)OCCc2ccc(-n3c(CCCc4ccncc4)nc4cc(C(F)(F)F)c(Cl)cc43)cc2)cc1
2,225 to 228 °C,C=C(C)c1cc(O)cc2nc(-c3ccc(O)cc3)oc12
3,156 to 159 °C,O=c1c2ccccc2[nH]n1-c1ccccc1F
4,131 °C,Nc1cccc(S(=O)(=O)NCC(F)(F)F)c1
5,157 to 158 °C,CCN(CC)C(=O)c1ccn2nc(-c3ccccc3)c(-c3ccc(=O)n(C(C)C)n3)c2c1
6,208 °C,Cn1c(N2CCOC(c3noc(-c4ccccc4)n3)C2)nc(-c2ccncn2)cc1=O (stereo unspecified)
7,145 to 147 °C,CC(C)(O)c1ccc(CNC(=O)c2cccnc2Oc2cccc3c2CCC3=O)cc1
8,174 °C,CCn1c(=O)n(CCN2CC[C@H](NC(=O)c3cc(Cl)c(N)c4c3OCC4)[C@H](OC)C2)c2ccccc21 (relative stereo)
9,> 195 °C,C#CC(Cn1cnnn1)n1nnc2cc3c(=O)n(C4CC4)nnc3cc2c1=O (stereo unspecified)
10,120 to 121 °C,Cc1nc2c(cc1NC(=N)N=C=O)CCCCC2CO[N+](=O)[O-] (stereo unspecified)
11,147 to 148 °C,O=C(c1ccc(F)c(Br)c1)N1CCC(Br)C(c2ccccc2)=N1 (stereo unspecified)
12,197 to 200 °C,N#Cc1cnn(-c2ccccn2)c1N
13,205 to 207 °C,COc1nc(NC(=O)NS(=O)(=O)c2ccccc2OCC#N)nn1C
14,163 to 164 °C,COc1ccc(Cn2cnc3c(-c4ccco4)nc(N(C)C)nc32)cc1
15,190 to 192 °C,O=C1CCC(c2ccc(-c3ccc(Cl)cc3)cc2)=NO1
16,80 to 82 °C,O=C(CCC12CCC(=O)N1C(=O)CC2)OCc1ccccc1
17,63 to 65 °C,CCCCCCNC(=O)C(CCC(=O)O)NC(=O)C(NC(=O)OC(C)(C)C)C(C)C (stereo unspecified)
18,184 to 185 °C,CC(C)(C)c1cc(-c2cn3ccsc3n2)cc(C(C)(C)C)c1O
19,134 to 136 °C,Cc1ccccc1-c1nn(C(C)(C)C(=O)N(C)C)cc1Cl
20,135 to 137 °C,Clc1ccc(-c2c(Cc3nc4ccccc4s3)cnn2-c2ccccc2)cc1
21,215 to 219 °C,Cc1cc(C)nc(S(=O)(=O)Nc2c(C)cccc2Cl)n1
22,159 to 162 °C,CC(C)(C)OC(=O)Nc1cc(C(F)(F)F)ccc1-c1cc(Oc2ccc3cccnc3c2)ncn1
23,168 to 169 °C,O=C(NC(=S)N1CCC(=O)C(C(c2ccccc2)c2ccccc2)C1)c1ccccc1 (stereo unspecified)
24,181 to 183 °C,CC(=O)c1ccc(NCc2cc3c(cc2O)CCO3)cc1

row,melting point,Compound
1,181 °C,CC(=O)OCC(=O)C1C(C)CC2C3CC(Cl)C4=CC(=O)C=CC4(C)C3=CCC21C (stereo unspecified)
2,201 to 203 °C,O=S(=O)(c1ccccc1)N1CCC(Nc2nc(OCC(F)(F)F)nc(-n3ccnc3)n2)CC1
3,158 to 159 °C,CN1CC(CCN2CCN(c3ccccn3)CC2)c2nc3ccccc3n2C1=O (stereo unspecified)
4,211 to 213 °C,CCc1nc(/C=C/c2cn(-c3ccccc3)nc2OCc2ccc(OCc3nc(-c4cccc(C(=O)NS(C)(=O)=O)c4)oc3C)c(OC)c2)cs1
5,193 °C,Cc1nnc2ccc(-c3cccc(N)c3)nn12
6,241 to 244 °C,COc1ccc(Nc2cc(-c3ccc(S(C)(=O)=O)cc3)nc(N)n2)cc1Cl
7,35 to 37 °C,CCCCc1ncc[nH]1
8,107 to 108 °C,COCCOC(=O)Nc1cccc(C)c1COc1cccn2c(C)c(C)nc12
9,80 to 81 °C,CCCS(=O)(=O)NCc1ccc2ccn(C3CCN(CCc4ccc(F)cc4)CC3)c2c1
10,127 to 129 °C,CCCCCCNC(=O)C1=C(C(=O)Nc2cc(OC3CCC(C)C3)c(Cl)cc2F)CCCC1 (stereo unspecified)
11,142 °C,CC(C)CCOc1cc(C(=O)O)cc([N+](=O)[O-])c1
12,107 to 109 °C,CCOc1cc(F)ccc1C(=O)c1ccc(OC)c(Cl)c1Cl
13,135 to 136 °C,O=[N+]([O-])C=C(NCCCOc1cccc(CN2CCCCC2)c1)NCC(O)c1ccc(F)cc1 (stereo unspecified)
14,103 to 105 °C,CC(C)CCc1cc2nnc(-c3ccccc3F)n2nc1OCc1ncnn1C
15,154 °C,Nc1nc(N)c(N)c(OCC2CCCCC2)n1
16,146 °C,COc1ccc(CN(C)CCOc2ccc(NC(=O)c3cccc4c(=O)c5ccccc5[nH]c34)cc2)cc1
17,153 to 155 °C,COc1ccc(C(=O)Nc2ccc(Cl)c(Cl)c2)cc1NCc1cccc(F)c1
18,150 °C,c1ccc(-c2cc(-c3ccc4c(c3)OCO4)cc(OCCCCCc3nnn[nH]3)n2)cc1
19,218 °C,O=C(O)CNC(=O)Nc1ccc(Cl)cc1
20,87 to 91 °C,CCOC(=O)CCCCC(NS(=O)(=O)c1ccc(C)cc1)c1ccc2ccccc2c1 (stereo unspecified)
21,86 to 88 °C,COCC1CN(c2ccc(C3CCCCC3)cc2)C(=O)O1 (racemic)
22,142 to 144 °C,O=CN1CCC(c2nn(-c3ccc(C(F)(F)F)cc3)c3cc(F)ccc23)CC1
23,250 to 252 °C,CS(=O)c1ccc(-c2nc(-c3ccc(F)cc3)c(-c3ccncc3)[nH]2)cc1 (stereo unspecified)
24,240 to 244 °C,COc1cc2c(cc1C(F)(F)F)N(C(=O)Nc1cccs1)CC2

row,melting point,Compound
1,97 to 99 °C,Cn1ccnc1Sc1ccc([N+](=O)[O-])cc1F
2,220 to 222 °C,S=C1NCC2(CC2)CN1
3,194 °C,O=C(NCCN1CCC(Nc2nc3ccccc3n2Cc2ccc(F)cc2)CC1)c1ccc(F)cc1
4,130 °C,COC1(c2nc(Br)c(Sc3ccc(/C(C)=N/O)cc3)s2)CCOCC1
5,> 260 °C,Cc1ccc(-n2nc(C(C)(C)C)cc2NC(=O)Nc2ccc(-c3c(C(N)=O)[nH]c4ccccc34)cc2)cc1
6,58.5 to 64 °C,CCN(CC)C(=O)c1c(I)ccc(F)c1[Si](C)(C)C
7,93 to 95 °C,CC(=O)N[C@H](COC1CCCCO1)C(=O)NCCO[N+](=O)[O-] (stereo partly specified)
8,152 °C,CN(C(=O)CN(C(=O)CNC(=O)Nc1cccc(CCO)c1)c1ccccc1)c1ccccc1
9,149 to 150 °C,Cn1cc(-c2cccc(N3Cc4cc(C(C)(C)C)ccc4C3=O)c2CO)nc(Nc2cccnc2)c1=O
10,107 to 110 °C,CCc1nc2c(cnn2CC)c(NC2CCOCC2)c1CNC(=O)c1cc(C)cc(C(=O)NCc2ccc(F)c(-c3cccc(C=O)c3)c2)c1
11,232 to 234 °C,COc1ccc2c(c1)CCC1CCNC(=O)C(CC(=O)O)=C21 (stereo unspecified)
12,68 to 69 °C,CNC(=O)[C@H](Cc1ccc2ccccc2c1)NC(=O)C(CCOc1c(F)c(F)c(F)c(F)c1F)CC(=O)O (stereo partly specified)
13,188 to 190 °C,CCCCS(=O)(=O)c1ccc(CCc2nccn3c(CC#N)ccc23)cc1
14,152 to 153 °C,O=C(c1ccc(O)cc1)c1sc2ccc(O)cc2c1-c1ccccc1
15,201 °C,O=c1cc2ccccc2c[nH]1
16,165 to 166 °C,CCn1ncc2nc(C(=O)NC)c(-c3ccccc3)nc21
17,117 to 120 °C,Cn1c(-c2cccnc2)c(CCCCCC(=O)O)c2ccccc21
18,111 to 115 °C,O=C(O)CN(CCN(CC(=O)O)C(Cc1ccccc1)C(=O)O)CCN(CC(=O)O)C(Cc1ccccc1)C(=O)O (stereo unspecified)
19,142 to 144 °C,Cn1nnnc1SCCCSc1nnnn1C
20,138 °C,O=C(O)CSc1cc(-c2ccccc2)nc2ccccc12
21,115 to 116 °C,CCn1c(Cl)c(C=O)c(=O)n(CC)c1=NO
22,267 to 268 °C,COc1ccc(C(=O)Nc2ccncc2)c2c1oc1ccc(NC(C)=O)cc12
23,175 to 177 °C,CC(=O)c1coc2cc(NS(C)(=O)=O)c(Oc3ccccc3)cc2c1=O
24,88 °C,CCCCn1c(=O)c2c(ncn2CCCCC(C)=O)n(CCCC)c1=O

row,melting point,Compound
1,140 to 170 °C,OC(CNC12N=CN=CC1=NC=N2)CN1CCN(C(c2ccc(F)cc2)c2ccc(F)cc2)CC1 (stereo unspecified)
2,124 to 125 °C,CCNC(=O)n1nc(Oc2ncc(C(F)(F)F)cc2Cl)c(C)c1C
3,128 to 129 °C,CN(C)c1ncc2c(=O)n(CCN3CCCCC3)sc2n1
4,52 °C,CCOC(=O)c1nnnn1Cc1ccc(OC)cc1
5,261 to 263 °C,CCCOc1ccccc1-c1nc2nc(NC)nnc2c(=O)[nH]1
6,68 to 70 °C,COC(c1nnco1)c1ccccc1COc1ccc(Cl)cc1C (stereo unspecified)
7,119 to 121 °C,CCc1cccc(C)c1C(=O)N[C@@H](Cc1ccc([N+](=O)[O-])cc1)C(=O)OC
8,119 to 120 °C,CC(=Cc1ccc(-n2ccnc2)cc1)[N+](=O)[O-]
9,220 °C,CCCOc1nsc(NC(=O)NC)c1C#N
10,258 to 260 °C,O=C1CCC(N2Cc3c(OCC4COc5ccccc5C4)cccc3C2=O)C(=O)N1 (stereo unspecified)
11,55 to 57 °C,CCN1c2ncc(CN(C)c3ccccc3)cc2C(=O)N(C)c2ccc(Cl)nc21
12,82 to 83 °C,O=C1OC(=O)C(c2ccccc2)=C1Cl
13,239 °C,NC(=O)c1sc2ncnc(-c3cc4c(c(OCc5ccccc5)c3)CCO4)c2c1N
14,68.9 to 69.3 °C,CCOc1ccc(-c2nc(CCC(=O)c3ccccc3OC)cs2)cc1OCC
15,95 to 96 °C,CCOC(=O)COc1nc2cc(OC)cc(OC)c2cc1-c1ccc(OC)cc1
16,129 to 131 °C,CC(C)(C)c1nc(C(=O)c2ccccc2)nc(C(C)(C)C)c1O
17,148 to 149 °C,COC(=O)c1cc2c(cnn2C)nc1C(=O)OC
18,300 °C,O=S(=O)(c1ccc(O)cc1)c1ncn(-c2ccccc2)c1-c1ccccc1
19,179 °C,COc1ccccc1COc1nc2c(oc3ccccc32)c(-c2ccc3c(c2)OCCO3)c1C(=O)O
20,115 to 118 °C,Cc1ccc(OC(=O)c2cccc(C(=O)Oc3ccc(C)cc3-n3nc4ccccc4n3)c2)c(-n2nc3ccccc3n2)c1
21,242 to 244 °C,Cc1ccc(C(=O)c2sc(Nc3ccc(S(N)(=O)=O)cc3)nc2N)c(C)c1

row,Compound,melting point
1,O=C1C=C(NC(=O)C(=O)c2cn(Cc3ccc(Cl)cc3)c3ccccc23)CO1,253 to 255 °C
2,N#Cc1nn(-c2c(Cl)cc(C(F)(F)F)cc2Cl)c(Cl)c1C=C(Br)Br,119 to 120 °C
3,Cc1cc(Cl)cc(C(=O)NC2(C)CS(=O)(=O)C2)c1NC(=O)c1cc(OCC(F)(F)F)nn1-c1ncccc1Cl,> 250 °C
